≈ marks a conversion by molar mass, not a printed value. Where “and” joins values, the source holds several entries; their conditions need not be identical. Identical values can stand only once. Ends that are not written are not given here.
Columns and labels:
[1] = tested on: E. coli O157: H7 (ATCC 43888); experiment: microbe, parasite or virus in culture; assay type: cell-based, Escherichia coli O157: H7; settings: for SI (selectivity index) E. coli O157: H7 ATCC 43888: ratio CC50 in VERO cells / MIC in ATCC 43888, maximum evaluated concentration used where CC50 not determined
Method: (§1) MIC was determined using the microdilution method as described in protocol M07-A9 of the Clinical and Laboratory Standards Institute. Briefly, 1:2 serial dilutions of Ib-M peptides in MHB were placed in a 96-well round-bottom plate at concentrations ranging from 100 to 0.05 μM; or reference antibiotics STP and GNT between 200 to 0.1 μM. The bacterial inoculum was prepared from a subculture of E. coli O157: H7 (ATCC 43888 or AC188) in LBB incubated for 18–24 hours at 35 ± 2°C before to the test. The bacteria suspension was diluted to 1x10^8 colony forming units (CFU)/mL, to obtain a turbidity equivalent to 0.5 on the McFarland scale, confirmed by spectrophotometry upon reaching an absorbance between 0.08–0.1 at a wavelength of 625 nm; then a 1:200 dilution in MHB was performed to obtain a final concentration of 5x10^5 CFU/mL. The diluted bacterial suspension was added to the 96-well plate containing the serially diluted peptides. The final volume of 200 μL per well consisted of 100 μl of the compound and 100 μL of diluted bacteria suspension. Negative and positive growth controls were performed by adding only MHB or E. coli O157: H7 with MHB to the wells, respectively. At the end of the incubation time, MIC was determined as the lowest compound concentration at which no bacterial growth was observed.

[2] = tested on: E. coli O157: H7 clinical isolate (AC188); experiment: microbe, parasite or virus in culture; assay type: cell-based, Escherichia coli O157: H7; settings: for SI (selectivity index) E. coli O157: H7 AC188: ratio CC50 in VERO cells / MIC in AC188, maximum evaluated concentration used where CC50 not determined
Method: as §1

[3] = tested on: E. coli O157: H7 (ATCC 43888); experiment: microbe, parasite or virus in culture; assay type: cell-based, Escherichia coli O157: H7
Method: (§2) MBC was determined as described in the M26-A protocol of the CLSI, 1999 [13]. […] Blood agar cultures were incubated at 35 ± 2°C for 18–24 hours, and the number of CFU was estimated.

[4] = tested on: E. coli O157: H7 clinical isolate (AC188); experiment: microbe, parasite or virus in culture; assay type: cell-based, Escherichia coli O157: H7
Method: as §2

VERO cells (ATCC CCL-81) = experiment: Cytotoxicity, MTT; assay type: cell-based; settings: 24 h exposure, 595 nm, mean ± S.D., triplicate in two independent experiments
Method: VERO cells at a concentration of 3x10^4 cells/mL were plated in 96 flat-bottom wells and incubated for 24 hours at 37°C in a 5% CO2 atmosphere. Subsequently, the cells were exposed to 1:2 serial dilutions of Ib-M peptides in the range from 400 to 1.6 μM and the reference antibiotics between 3200 and 1.6 μM. Control cells were maintained without peptides or reference antibiotics. After 24 hours of incubation, VERO cells viability was determined using the MTT (3- (4,5-dimethiazol-2-yl) -2,5-diphenyltetrazole bromide) colorimetric technique (Mosmann, 1983). To do so, 20 μL/well of MTT was added at a concentration of 5 mg/mL and incubated for 4 hours. After that time, the culture medium was removed from the wells, and 100 μL of dimethylsulfoxide was added to solubilize the formazan crystals. Absorbance was determined by spectrophotometry using a wavelength of 595 nm.
The 50% cytotoxic concentrations (CC50) were calculated by sigmoid regression analysis from the inhibition percentages using the XLFit program (^©2019 IDBS). The Selectivity Index (SI) was calculated as the ratio between CC50 in VERO cells and the MICs in E. coli O157: H7 [17]. For those compounds whose CC50 could not be determined, the maximum evaluated concentration was used to calculate the respective SI.

[5] = tested on: E. coli O157: H7 (ATCC 43888); assay type: cell-based, Escherichia coli O157: H7; settings: lag phase, 0.5xMIC, at 24 hour, turbidity at 595 nm
Method: The kinetics of cell growth of E. coli O157: H7 in the presence of the peptides were followed during 24 hours. The tests were performed with the reference strain ATCC 43888, and the antibacterial activity of the compounds was evaluated in the latency phase (lag phase) and the logarithmic phase (log phase).
For the lag phase, E. coli O157: H7 at 5x10^5 CFU/mL with MHB in 96-well plate was treated with Ib-M peptides at a concentrations of 0.5xMIC, 1xMIC, 2xMIC in a final volume of 200 μL/well for 24 hours at 37°C. The turbidity was determined spectrophotometrically at 595 nm for samples taken at 0, 2, 4, 6, 8, 10, 12 and 24 hours.

E. coli = tested on: E. coli; set-up: method as in PMID 29671805, PMID 19952307; settings: in vitro activity reported against E. coli; cited from earlier work
[6] = strain ATCC 43888, MHB, 5x10^5 CFU/mL, mean ± S.D., triplicate in two independent experiments
[7] = clinical isolate AC188, MHB, 5x10^5 CFU/mL, mean ± S.D., triplicate in two independent experiments
[8] = strain ATCC 43888, colony count <= 10 on blood agar, mean ± S.D., triplicate in two independent experiments
[9] = clinical isolate AC188, colony count <= 10 on blood agar, mean ± S.D., triplicate in two independent experiments

Compound | MIC ([1]; Escherichia coli, ATCC43888) | SI (selectivity index) E. coli O157: H7 ATCC 43888 [1] | MIC ([2]; Escherichia coli) | SI (selectivity index) E. coli O157: H7 AC188 [2] | MBC ([3]; Escherichia coli, ATCC43888) | MBC ([4]; Escherichia coli) | CC50 VERO Cells (VERO cells (ATCC CCL-81)) | MIC [1, 6] | MIC [2, 7] | MBC [3, 8] | MBC [4, 9] | percentage of E. coli growth inhibition [5] | MIC (E. coli)
CNC(C)C1CCC(N)C(OC2C(N)CC(N)C(OC3OCC(C)(O)C(NC)C3O)C2O)O1 (stereo not shown) [GNT, Gentamicin, reference compound] | 1.8 ± 0.6 µM (≈ 0.86 µg/mL) | >1777.8 | 2.3 ± 0.9 µM (≈ 1.1 µg/mL) | >1391.3 | 4.7 ± 1.7 µM (≈ 2.24 µg/mL) | 4.2 ± 1.6 µM (≈ 2.01 µg/mL) | > 3200 µM and >3200 ± 0 µM |  |  |  |  |  | 
[H]/N=C(/N)N[C@H]1[C@H](O)[C@@H](O)[C@H](O[C@@H]2O[C@@H](C)[C@](O)(C=O)[C@H]2O[C@@H]2O[C@@H](CO)[C@H](O)[C@@H](O)[C@@H]2NC)[C@@H](N/C(N)=N\[H])[C@@H]1O [STP, Streptomycin, reference compound] | 9.4 µM (≈ 5.47 µg/mL) | >340.4 | 66.7 µM (≈ 38.8 µg/mL) | >48 | 11.5 µM (≈ 6.69 µg/mL) | 108 µM (≈ 63 µg/mL) | >3200 ± 0 µM | 9.4 ± 3.4 µM (≈ 5.47 µg/mL) | 66.7 ± 25.8 µM (≈ 38.8 µg/mL) | 11.5 ± 2.6 µM (≈ 6.69 µg/mL) | 108.3 ± 49.2 µM (≈ 63 µg/mL) |  | 
EWGRRMMGRGPGRRMMRRWW-NH2 [Ib-M4] |  |  |  |  |  |  | > 400 ± 0.0 µM | 12.5 ± 0.0 µM | 6.3 ± 0.0 µM | 22.9 ± 5.1 µM | 15.6 ± 10.3 µM |  | 
EWGRRMMGRGPGRRMMRWWR-NH2 [Ib-M1] |  |  |  |  |  |  | 395.2 ± 18.3 µM | 4.7 ± 1.7 µM | 1.6 ± 0.0 µM | 6.3 ± 0.0 µM | 3.7 ± 1.3 µM | higher than 63% | 
EWGRRMMGWGRGRRMMRRWW-NH2 [Ib-M6] |  |  |  |  |  |  | 310.9 ± 4.4 µM | 9.4 ± 3.4 µM | 4.7 ± 1.7 µM | 11.5 ± 7.3 µM | 10.4 ± 3.2 µM |  | 
EWGRRMMGWRPGRRMMRRWW-NH2 [Ib-M5] |  |  |  |  |  |  | 315.3 ± 49.1 µM | 8.3 ± 3.2 µM | 4.7 ± 1.7 µM | 15.6 ± 7.7 µM | 7.3 ± 2.6 µM |  | 
EWGRRMMGWRPGRRMMRWWR-NH2 [Ib-M2] |  |  |  |  |  |  | 197.5 ± 2.4 µM | 4.7 ± 1.7 µM | 3.7 ± 1.28 µM | 6.8 ± 3.1 µM | 4.2 ± 1.6 µM |  | 
lactoferricin |  |  |  |  |  |  |  |  |  |  |  |  | 2 µM
magainin 2 |  |  |  |  |  |  |  |  |  |  |  |  | 8 µM

From paper PMC7018034, “Antimicrobial activity of Ib-M peptides against Escherichia coli O157: H7” (PLoS ONE, 2020)
